Test results from EPA's ToxValDB 9.5 (doi:10.2903/j.efsa.2014.3817).

Legend:
Anas platyrhynchos = conditions: acute; oral; unspecified; mortality
Apis mellifera = conditions: acute, mortality
Canidae = conditions: chronic; duration: 1 years; oral; Dog Other; clinical chemistry
Colinus virginianus = conditions: reproduction developmental
Daphnia magna = conditions: chronic/long-term; duration: 21 days; reproduction
Folsomia candida = conditions: chronic/long-term
Oncorhynchus mykiss = conditions: chronic/long-term; duration: 90 days; other
Oryctolagus sp. = conditions: reproduction developmental; histopathology: nonneoplastic
Zea sp. = conditions: not reported; seedling emergence
Aphidius rhopalosiphi = assay: LR50; higher = less toxic; conditions: not reported; mortality
Typhlodromus pyri = assay: LR50; higher = less toxic; conditions: not reported; mortality

## CC1=NNC(=O)N(/N=C/c2cccnc2)C1 [Pymetrozine]
Anas platyrhynchos
  LD50: ≥ 2000 mg/kg-day
Apis mellifera; dermal
  LD50: > 100 µg/piece
Apis mellifera; oral, unspecified
  LD50: > 62.7 µg/piece
Canidae
  NOAEL: 0.57 mg/kg-day
Colinus virginianus
  NOEL: 21.8 mg/kg-day
Daphnia magna
  NOEC: 0.025 mg/L
Folsomia candida
  NOEC: 1000 mg/kg
Oncorhynchus mykiss
  NOEC: 11.7 mg/L
Oryctolagus sp.
  NOAEL: 10 mg/kg-day
Rattus norvegicus; acute, mortality
  LD50: 3590 mg/kg-day
Rattus norvegicus; reproduction developmental, reproduction
  NOAEL: ≥ 110 mg/kg-day
Rattus norvegicus; subchronic, duration: 90 days, oral, clinical chemistry
  NOAEL: 33 mg/kg-day
Tagia sp.; acute, duration: 14 days, mortality
  LC50: 1100 mg/kg
Tagia sp.; chronic/long-term, duration: 8 weeks
  NOEC: 0.00139 g/ha
Zea sp.
  NOEC: 150 g/ha
Aphidius rhopalosiphi
  LR50: 75 g/ha
Typhlodromus pyri
  LR50: > 1200 g/ha
